Calls of active or inactive are those of the source. No cut-off for these calls is given here.
Key:
Flp-In-293 [1] = assay: Induction of frataxin accumulation in human Flp-In-293 cells stably expressing frataxin K147R mutant at 10 uM assessed as increase in frataxin levels measured after 24 hrs by Western blot analysis; format: functional, cell-based
[2] = molecular target: T1, Frataxin, mitochondrial (Homo sapiens) (UniProt Q16595); assay: Inhibition of recombinant frataxin (unknown origin) precursor degradation assessed as half-saturation binding constant (L1/2) and measured by fluorescence based assay
T1 sequence (whole entry): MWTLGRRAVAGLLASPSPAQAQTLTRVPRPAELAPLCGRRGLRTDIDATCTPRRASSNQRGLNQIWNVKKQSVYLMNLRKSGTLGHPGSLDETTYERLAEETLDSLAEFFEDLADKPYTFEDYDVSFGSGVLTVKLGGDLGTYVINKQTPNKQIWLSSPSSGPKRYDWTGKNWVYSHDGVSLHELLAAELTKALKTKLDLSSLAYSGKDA

Lymphocyte [3] = assay: Rescue of aconitase activity in human FRDA-patient isolated lymphocyte at 10 uM […]; format: functional, cell-based
Lymphocyte [4] = assay: Induction of frataxin accumulation in human FRDA-patient isolated lymphocyte at 10 uM assessed as increase in frataxin levels measured by Western blot analysis; format: functional, cell-based
Flp-In-293 [5] = assay: Induction of frataxin accumulation in human Flp-In-293 cells stably expressing frataxin at 10 uM assessed as increase in frataxin levels measured after 24 hrs by Western blot analysis; format: functional, cell-based
Flp-In-293 [6] = assay: Induction of frataxin accumulation in human Flp-In-293 cells stably expressing frataxin at 10 uM assessed as increase in frataxin levels measured after 72 hrs by Western blot analysis; format: functional, cell-based
Lymphocyte [7] = assay: Induction of frataxin accumulation in human FRDA-patient isolated lymphocyte at 1 uM assessed as increase in frataxin levels measured after 4 days by Western blot analysis; format: functional, cell-based; conditions: time 4.0 day
[8] = molecular target: T1, Frataxin, mitochondrial (Homo sapiens); assay: Inhibition of frataxin ubiquitination in human HEK293 cells transiently co-transfected with HA-Ub and frataxin at 10 uM and measured after 48 hrs by Western blot analysis; format: cell-based

Row | Structure (SMILES) | Activity (Flp-In-293 [1]) | K1/2 [2] [µM] | Activity (Lymphocyte [3]) | Activity (Lymphocyte [4]) | Activity (Flp-In-293 [5]) | Activity (Flp-In-293 [6]) | Activity (Lymphocyte [7]) | inhibition [8]
1 | C/C(=N\NC(=O)c1ccccc1)c1ccc2c(c1)Nc1ccccc1S2 | inactive | 2.3 | Active | Active | Active | Active |  | 
2 | COc1ccccc1C(=O)N/N=C(\C)c1ccc2c(c1)Nc1ccccc1S2 |  |  |  |  |  |  | Active | 
3 | C/C(=N\NC(=O)c1ccc(C)cc1C)c1ccc2c(c1)Nc1ccccc1S2 | inactive | 2.9 |  | Active | Active | Active |  | Active
4 | C/C(=N\NC(=O)c1cc2ccccc2cc1O)c1ccc2c(c1)Nc1ccccc1S2 | inactive |  |  |  | Active |  |  | Active
